In patent US20240217963A1, “RECEPTOR-INTERACTING PROTEIN 1 INHIBITORS, PREPARATIONS, AND USES THEREOF” (SIRONAX LTD., priority 2021, published 2024):

Target: T1, RIP1 (Homo sapiens, UniProt Q13546)
T1 sequence (Q13546 1-671): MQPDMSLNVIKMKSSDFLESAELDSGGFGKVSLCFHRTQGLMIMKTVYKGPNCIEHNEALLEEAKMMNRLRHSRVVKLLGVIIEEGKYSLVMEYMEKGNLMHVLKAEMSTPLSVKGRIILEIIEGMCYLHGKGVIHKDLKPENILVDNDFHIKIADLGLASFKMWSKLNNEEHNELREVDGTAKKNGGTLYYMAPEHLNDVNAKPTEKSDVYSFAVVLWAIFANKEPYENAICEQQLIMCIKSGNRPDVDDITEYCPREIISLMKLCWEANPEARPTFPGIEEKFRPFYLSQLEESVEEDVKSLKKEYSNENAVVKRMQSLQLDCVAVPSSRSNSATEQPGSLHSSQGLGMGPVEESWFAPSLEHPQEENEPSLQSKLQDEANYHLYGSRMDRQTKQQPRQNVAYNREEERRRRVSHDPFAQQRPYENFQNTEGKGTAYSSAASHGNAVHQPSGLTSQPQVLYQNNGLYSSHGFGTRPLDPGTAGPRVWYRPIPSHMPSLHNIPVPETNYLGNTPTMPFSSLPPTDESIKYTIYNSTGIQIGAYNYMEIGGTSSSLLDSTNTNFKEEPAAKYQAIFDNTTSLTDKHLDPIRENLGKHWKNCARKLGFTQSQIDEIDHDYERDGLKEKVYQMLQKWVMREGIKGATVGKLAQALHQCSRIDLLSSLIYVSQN
Assay: Cellular RIP1 inhibitory activity: HT-29 necroptosis (TNFα/SMAC mimetic/zVAD-FMK) CellTiter-Glo viability assay
Assay type: cell-based
Settings: HT-29 cells, TNF-α 10 ng/ml + SMAC mimetic 6 μM + zVAD-FMK 10 μM, 20 hours, geometric mean, read-out: EC50 Values of in vitro Cellular RIP1 Inhibitory Activity
Description: Compounds 1-99 (denoted as Cmpd Nos. 1 through 99 in Table 2 below) of the disclosure were tested for binding and cellular RIP1 inhibitory activity following the experimental procedures described below. Cell Seeding • 1. HT-29 cells were checked every day to make sure that they were healthy and growing as expected. They were subjected to sub-culturing when they were approximately 80% confluent. • 2. The culture medium, McCOY's 5 A medium (Gibco, Cat No. 16600-082) with 10% fetal bovine serum or FBS (Gibco, Cat No. 10099-141C), was pre-warmed in a 37° C. water bath for at least 30 min. • 3. When the cells had reached a desired level of confluency of 80% in a T75 flask, the medium was aspirated, and the cells were washed with warm phosphate buffered saline or PBS two times. • 4. 2-3 ml fresh warm trypsin (Gibco, Cat No. 25200-056) solution was added to the washed cells. The flask with the cells was transferred to a 37° C. incubator. • 5. After 5 minutes, the side of the flask was tapped, and the flask was examined under a microscope for detachment of the cells to the flask. If necessary, the cells were kept in the incubator for an additional 5-10 minutes, with occasional tapping, until lifting was complete. • 6. The trypsin reaction was neutralized by transferring 6-9 ml cell culture medium to sterile 15 ml conical tubes, and by centrifuging the cell culture at 300×g for 7 minutes to pellet the cells (supernatant decanted). • 7. The cells were resuspended in fresh cell culture medium and the cell counting was performed using a hemocytometer. • 8. 100 μl of the resuspended cell culture medium containing ˜5,000 cells were transferred into each well of the sterile 96-well cell culture plate (Corning 3903) and cultured overnight at 37° C. with 5% CO2. Compound Titration and Treatment • 1. All test compounds were dissolved in DMSO (Dimethyl sulfoxide) to create a 20 mM stock. • 2. 3 μl of each compound 20 mM stock was mixed with 27 μl DMSO, and the compound solution was further diluted at a titration ratio of 1:3 (20 μl compound solution+40 μl DMSO) till the 10 points end. • 3. All culture medium was removed from assay plates filled with HT-29 cell cultures. […] 0.5 μL of the diluted compound solution was added to the corresponding 96-well assay plates. • 5. The assay plates were incubated for 20 hours at 37° C. with 5% CO2. Cell Viability Detection • 1. The CellTiter-Glo® Luminescent Cell Viability Assay was employed to detect the ATP levels of viable HT-29 cells. • 2. The CellTiter-Glo® buffer and the lyophilized substrate were equilibriated to room temperature prior to use. • 3. The CellTiter-Glo® substrate was resuspended with CellTiter-Glo® buffer, then mixed by gently vortexing to obtain a homogeneous solution. • 4. 20 μl the enzyme/substrate mixture was transferred by multi-channel pipetting into 96-well assay plates. • 5. The assay plates were placed on an orbital shaker and the contents were shaken for 3 minutes to induce cell lysis. • 6. The assay plates were incubated at room temperature for 10 minutes to stabilize the luminescent signal. • 7. The luminescence signals were read and recorded with EnVision. • 8. The geometric mean EC50 values were calculated from 10 points response dose with duplicates. In Table 2, activity is provided as follows: +++=0.1 nM≤EC50<100 nM; ++=100 nM≤EC50<1000 nM; +=1000 nM≤EC50<10000 nM.

Row | SMILES | EC50
1 | Cc1nc(C)n(-c2nc(N3CCC(C(=O)N(O)Cc4cc(F)cc(F)c4)CC3)ncc2F)n1 [Compound 1, N-(3,5-difluorobenzyl)-1-(4-(3,5-dimethyl-1H-1,2,4-triazol-1-yl)-5-fluoropyrimidin-2-yl)-N-hydroxypiperidine-4-carboxamide] | 0.1 to 100 nM
2 | Cc1nc(C)n(-c2nc(N3CCC(C(=O)NCc4cc(F)cc(F)c4)CC3)ncc2F)n1 [Compound 2, N-(3,5-difluorobenzyl)-1-(4-(3,5-dimethyl-1H-1,2,4-triazol-1-yl)-5-fluoropyrimidin-2-yl)piperidine-4-carboxamide] | 0.1 to 100 nM
3 | Cc1cnn(C)c1-c1nc(N2CCC(C(=O)N(O)Cc3cnn(C)c3)CC2)ncc1F [Compound 3, 1-(4-(1,4-dimethyl-1H-pyrazol-5-yl)-5-fluoropyrimidin-2-yl)-N-hydroxy-N-((1-methyl-1H-pyrazol-4-yl)methyl)piperidine-4-carboxamide] | 0.1 to 100 nM
4 | Cc1cnn(C)c1-c1nc(N2CCC(C(=O)N(O)Cc3cc(F)cc(F)c3)CC2)ncc1F [Compound 4, N-(3,5-difluorobenzyl)-1-(4-(1,4-dimethyl-1H-pyrazol-5-yl)-5-fluoropyrimidin-2-yl)-N-hydroxypiperidine-4-carboxamide] | 0.1 to 100 nM
5 | Cc1nc(C)n(-c2nc(N3CCC(C(=O)NCc4cc(F)cc(F)c4F)CC3)ncc2F)n1 [Compound 5, 1-(4-(3,5-dimethyl-1H-1,2,4-triazol-1-yl)-5-fluoropyrimidin-2-yl)-N-(2,3,5-trifluorobenzyl)piperidine-4-carboxamide] | 0.1 to 100 nM
6 | Cc1cnn(C)c1-c1nc(N2CCC(C(=O)NCc3cc(F)cc(F)c3F)CC2)ncc1F [Compound 6, 1-(4-(1,4-dimethyl-1H-pyrazol-5-yl)-5-fluoropyrimidin-2-yl)-N-(2,3,5-trifluorobenzyl)piperidine-4-carboxamide] | 0.1 to 100 nM
7 | Cc1nc(C)n(-c2nc(N3CCC(C(=O)N(O)Cc4ccccn4)CC3)ncc2F)n1 [Compound 7, 1-(4-(3,5-dimethyl-1H-1,2,4-triazol-1-yl)-5-fluoropyrimidin-2-yl)-N-h ydroxy-N-(pyridin-2-ylmethyl)piperidine-4-carboxamide] | 100 to 1000 nM
8 | Cc1cnn(C)c1-c1nc(N2CCC(C(=O)N(O)Cc3ncccc3F)CC2)ncc1F [Compound 8, 1-(4-(1,4-dimethyl-1H-pyrazol-5-yl)-5-fluoropyrimidin-2-yl)-N-((3-fluoropyridin-2-yl)methyl)-N-hydroxypiperidine-4-carboxamide] | 0.1 to 100 nM
9 | Cc1cnn(C)c1-c1nc(N2CCC(C(=O)N(O)Cc3ncccc3Cl)CC2)ncc1F [Compound 9, N-((3-chloropyridin-2-yl)methyl)-1-(4-(1,4-dimethyl-1H-pyrazol-5-yl)-5-fluoropyrimidin-2-yl)-N-hydroxypiperidine-4-carboxamide] | 0.1 to 100 nM
10 | Cc1cnn(C)c1-c1nc(N2CCC(C(=O)N(O)Cc3ccc(F)cn3)CC2)ncc1F [Compound 10, 1-(4-(1,4-dimethyl-1H-pyrazol-5-yl)-5-fluoropyrimidin-2-yl)-N-((5-fluoropyridin-2-yl)methyl)-N-hydroxypiperidine-4-carboxamide] | 0.1 to 100 nM
11 | Cc1cnn(C)c1-c1nc(N2CCC(C(=O)N(O)Cc3ccncc3F)CC2)ncc1F [Compound 11, 1-(4-(1,4-dimethyl-1H-pyrazol-5-yl)-5-fluoropyrimidin-2-yl)-N-((3-fluoropyridin-4-yl)methyl)-N-hydroxypiperidine-4-carboxamide] | 0.1 to 100 nM
12 | Cc1cnn(C)c1-c1nc(N2CCC(C(=O)N(O)Cc3nccs3)CC2)ncc1F [Compound 12, 1-(4-(1,4-dimethyl-1H-pyrazol-5-yl)-5-fluoropyrimidin-2-yl)-N-hydroxy-N-(thiazol-2-ylmethyl)piperidine-4-carboxamide] | 0.1 to 100 nM
13 | Cc1nc(C)n(-c2nc(N3CCC(C(=O)N(O)Cc4ncccc4F)CC3)ncc2F)n1 [Compound 13, 1-(4-(3,5-dimethyl-1H-1,2,4-triazol-1-yl)-5-fluoropyrimidin-2-yl)-N-((3-fluoropyridin-2-yl)methyl)-N-hydroxypiperidine-4-carboxamide] | 0.1 to 100 nM
14 | Cc1nc(C)n(-c2nc(N3CCC(F)(C(=O)N(O)Cc4cc(F)cc(F)c4)CC3)ncc2F)n1 [Compound 14, N-(3,5-difluorobenzyl)-1-(4-(3,5-dimethyl-1H-1,2,4-triazol-1-yl)-5-fluoropyrimidin-2-yl)-4-fluoro-N-hydroxypiperidine-4-carboxamide] | 0.1 to 100 nM
15 | Cn1ncnc1-c1nc(N2CCC(C(=O)N(O)Cc3cc(F)cc(F)c3)CC2)ncc1F [Compound 15, N-(3,5-difluorobenzyl)-1-(5-fluoro-4-(1-methyl-1H-1,2,4-triazol-5-yl)pyrimidin-2-yl)-N-hydroxypiperidine-4-carboxamide] | 0.1 to 100 nM
16 | Cc1cnn(C)c1-c1nc(N2CCC(C(=O)N(O)Cc3cncs3)CC2)ncc1F [Compound 16, 1-(4-(1,4-dimethyl-1H-pyrazol-5-yl)-5-fluoropyrimidin-2-yl)-N-hydroxy-N-(thiazol-5-ylmethyl)piperidine-4-carboxamide] | 0.1 to 100 nM
17 | Cc1cnn(C)c1-c1nc(N2CCC(F)(C(=O)N(O)Cc3cc(F)cc(F)c3)CC2)ncc1F [Compound 17, N-(3,5-difluorobenzyl)-1-(4-(1,4-dimethyl-1H-pyrazol-5-yl)-5-fluoropyrimidin-2-yl)-4-fluoro-N-hydroxypiperidine-4-carboxamide] | 0.1 to 100 nM
18 | Cn1ncnc1-c1nc(N2CCC(C)(C(=O)N(O)Cc3cc(F)cc(F)c3)CC2)ncc1F [Compound 18, N-(3,5-difluorobenzyl)-1-(5-fluoro-4-(1-methyl-1H-1,2,4-triazol-5-yl)pyrimidin-2-yl)-N-hydroxy-4-methylpiperidine-4-carboxamide] | 0.1 to 100 nM
19 | Cn1ncnc1-c1nc(N2CCC(F)(C(=O)N(O)Cc3cc(F)cc(F)c3)CC2)ncc1F [Compound 19, N-(3,5-difluorobenzyl)-4-fluoro-1-(5-fluoro-4-(1-methyl-1H-1,2,4-triazol-5-yl)pyrimidin-2-yl)-N-hydroxypiperidine-4-carboxamide] | 0.1 to 100 nM
20 | Cc1cnn(C)c1-c1nc(N2CCC(C(=O)N(O)Cc3ccnc(F)c3)CC2)ncc1F [Compound 20, 1-(4-(1,4-dimethyl-1H-pyrazol-5-yl)-5-fluoropyrimidin-2-yl)-N-((2-fluoropyridin-4-yl)methyl)-N-hydroxypiperidine-4-carboxamide] | 0.1 to 100 nM
21 | Cn1ncnc1-c1nc(N2CCC(C(=O)NCc3cc(F)cc(F)c3F)CC2)ncc1F [Compound 21, 1-(5-fluoro-4-(1-methyl-1H-1,2,4-triazol-5-yl)pyrimidin-2-yl)-N-(2,3,5-trifluorobenzyl)piperidine-4-carboxamide] | 0.1 to 100 nM
22 | Cc1nc(C)c(CNC(=O)C2CCN(c3ncc(F)c(-c4c(C)cnn4C)n3)CC2)s1 [Compound 22, 1-(4-(1,4-dimethyl-1H-pyrazol-5-yl)-5-fluoropyrimidin-2-yl)-N-((2,4-dimethylthiazol-5-yl)methyl)piperidine-4-carboxamide] | 100 to 1000 nM
